According to PubChem BioAssay AID248 (DTP/NCI, 2004):
Several values for one entry are separate records, joined by “and”; a condition that tells them apart may be missing. Identical values can stand only once. Inconclusive results and toxic doses are left out. No stated cut-off is given here; in the data, active means T/C of 150% or more; inactive means T/C below 125%.

Tested on: L1210 leukemia ip in BDF1 mice, survival T/C
Assay: NCI In Vivo Anticancer Drug Screen. Data for tumor model L1210 Leukemia (intraperitoneal) in B6D2F1 (BDF1) mice
Conditions: endpoint: mean survival time, higher = longer survival
Outline: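 In this screen, tumor-bearing mice given compound are compared to those given vehicle, and their survival values are reported as a treated-to-control quotient.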

[1] = dose: 100.0 mg/kg/injection, schedule: Q01DX009 (ip), vehicle: saline with Tween-80
[2] = dose: 100.0 mg/kg/injection, schedule: Q04DX003 (ip), vehicle: saline with Tween-80
[3] = dose: 200.0 mg/kg/injection, schedule: Q01DX009 (ip), vehicle: saline with Tween-80
[4] = dose: 200.0 mg/kg/injection, schedule: Q04DX003 (ip), vehicle: saline with Tween-80
[5] = dose: 400.0 mg/kg/injection, schedule: Q04DX003 (ip), vehicle: saline with Tween-80
[6] = dose: 100.0 mg/kg/injection, schedule: Q01DX009 (ip), vehicle: Klucel (hydroxypropylcellulose) (HPC)
[7] = dose: 100.0 mg/kg/injection, schedule: Q04DX003 (ip), vehicle: Klucel (hydroxypropylcellulose) (HPC)
[8] = dose: 200.0 mg/kg/injection, schedule: Q01DX009 (ip), vehicle: Klucel (hydroxypropylcellulose) (HPC)
[9] = dose: 200.0 mg/kg/injection, schedule: Q04DX003 (ip), vehicle: Klucel (hydroxypropylcellulose) (HPC)
[10] = dose: 400.0 mg/kg/injection, schedule: Q01DX009 (ip), vehicle: Klucel (hydroxypropylcellulose) (HPC)
[11] = dose: 400.0 mg/kg/injection, schedule: Q04DX003 (ip), vehicle: Klucel (hydroxypropylcellulose) (HPC)
[12] = dose: 100.0 mg/kg/injection, schedule: Q01DX009 (ip), vehicle: saline
[13] = dose: 200.0 mg/kg/injection, schedule: Q01DX009 (ip), vehicle: saline
[14] = dose: 400.0 mg/kg/injection, schedule: Q01DX009 (ip), vehicle: saline
[15] = dose: 100.0 mg/kg/injection, schedule: Q01DX001 (ip), vehicle: saline
[16] = dose: 200.0 mg/kg/injection, schedule: Q01DX001 (ip), vehicle: saline
[17] = dose: 100.0 mg/kg/injection, schedule: Q04DX002 (ip), vehicle: Klucel (hydroxypropylcellulose) (HPC)
[18] = dose: 200.0 mg/kg/injection, schedule: Q04DX002 (ip), vehicle: Klucel (hydroxypropylcellulose) (HPC)
[19] = dose: 400.0 mg/kg/injection, schedule: Q04DX002 (ip), vehicle: Klucel (hydroxypropylcellulose) (HPC)
[20] = dose: 25.0 mg/kg/injection, schedule: Q04DX003 (ip), vehicle: saline
[21] = dose: 100.0 mg/kg/injection, schedule: Q04DX003 (ip), vehicle: saline
[22] = dose: 200.0 mg/kg/injection, schedule: Q04DX003 (ip), vehicle: saline
[23] = dose: 400.0 mg/kg/injection, schedule: Q04DX003 (ip), vehicle: saline
[24] = dose: 50.0 mg/kg/injection, schedule: Q01DX009 (ip), vehicle: saline
[25] = dose: 50.0 mg/kg/injection, schedule: Q04DX003 (ip), vehicle: saline
[26] = dose: 400.0 mg/kg/injection, schedule: Q01DX001 (ip), vehicle: saline
[27] = dose: 100.0 mg/kg/injection, schedule: Q01DX001 (ip), vehicle: carboxymethylcellulose (CMC)
[28] = dose: 200.0 mg/kg/injection, schedule: Q01DX001 (ip), vehicle: carboxymethylcellulose (CMC)
[29] = dose: 400.0 mg/kg/injection, schedule: Q01DX001 (ip), vehicle: carboxymethylcellulose (CMC)
[30] = dose: 50.0 mg/kg/injection, schedule: Q01DX009 (ip), vehicle: saline with Tween-80

Measured: T/C

CC(C)CCCBr
inactive: [1] 101 % of control | [2] 94 % of control | [3] 100 % of control | [4] 95 % of control | dose: 400.0 mg/kg/injection, schedule: Q01DX009 (ip), vehicle: saline with Tween-80 94 % of control | [5] 99 % of control

CC(=O)NCc1cc(C)c(C)cc1C
inactive: [6] 100 % of control | [7] 101 % of control | [8] 104 % of control | [9] 97 % of control | [10] 96 % of control | [11] 109 % of control

CNC(=O)N(CCC#N)C1CCCCC1
inactive: dose: 100.0 mg/kg/injection, schedule: Q04DX003 (ip), vehicle: other 104 % of control | dose: 200.0 mg/kg/injection, schedule: Q04DX003 (ip), vehicle: other 106 % of control | dose: 400.0 mg/kg/injection, schedule: Q04DX003 (ip), vehicle: other 96 % of control

COc1ccc(OC)c(NC(=O)OCC(Cl)(Cl)Cl)c1
inactive: [12] 109 % of control | [13] 104 % of control | [14] 98 % of control

O=P(CCl)(Oc1ccc(Cl)cc1)Oc1ccc(Cl)cc1
inactive: [15] 103 % of control | [16] 95 % of control

CC/C(=C(\c1ccccc1)c1ccc(OCCN(C)C)cc1)c1ccccc1
inactive: [17] 95 % of control | [18] 92 % of control | [19] 100 % of control

O=NO.[Co].[NH2-].[NH2-].[NH2-].[NH2-].[NH2-]
inactive: [20] 101 % of control

O=C(O)c1nnn(Cc2ccccc2)c1C(=O)O
inactive: dose: 100.0 mg/kg/injection, schedule: Q04DX002 (ip), vehicle: saline 104 % of control | dose: 200.0 mg/kg/injection, schedule: Q04DX002 (ip), vehicle: saline 104 % of control | dose: 400.0 mg/kg/injection, schedule: Q04DX002 (ip), vehicle: saline 96 % of control

Nc1cc(S(N)(=O)=O)ccc1SSc1ccc(S(N)(=O)=O)cc1N
inactive: [12] 105 % of control | [21] 96 % of control | [13] 99 % of control | [22] 94 % of control | [14] 110 % of control | [23] 89 % of control

COc1cc(C(=O)Nc2ccc(N(C)C)cc2)cc(OC)c1OC
inactive: dose: 25.0 mg/kg/injection, schedule: Q01DX009 (ip), vehicle: saline 103 % of control | [20] 108 % of control | [24] 108 % of control | [25] 97 % of control | [12] 97 % of control | [21] 100 % of control | [13] 104 % of control | [22] 103 % of control | [23] 100 % of control

Nc1nc(N)nc(-c2ccc(NC(=O)c3ccccc3[N+](=O)[O-])cc2)n1
inactive: dose: 50.0 mg/kg/injection, schedule: Q04DX003 (ip), vehicle: Klucel (hydroxypropylcellulose) (HPC) 100 % of control | dose: 100.0 mg/kg/injection, schedule: Q01DX001 (ip), vehicle: Klucel (hydroxypropylcellulose) (HPC) 97 % of control | [7] 106 % of control | dose: 200.0 mg/kg/injection, schedule: Q01DX001 (ip), vehicle: Klucel (hydroxypropylcellulose) (HPC) 95 % of control | [9] 103 % of control

CCCCOCCOC(=O)C1OC1(C)c1ccccc1 (configuration not stated)
inactive: dose: 100.0 mg/kg/injection, schedule: Q04DX002 (ip), vehicle: saline with Tween-80 100 % of control | dose: 200.0 mg/kg/injection, schedule: Q04DX002 (ip), vehicle: saline with Tween-80 102 % of control | dose: 400.0 mg/kg/injection, schedule: Q04DX002 (ip), vehicle: saline with Tween-80 106 % of control

OCCCN1CCN(CCCC2c3ccccc3Sc3ccc(Cl)cc32)CC1 (configuration not stated)
inactive: [20] 102 % of control | [25] 109 % of control

O=[N+]([O-])c1ccc(Oc2ccccc2[N+](=O)[O-])cc1
inactive: dose: 222.0 mg/kg/injection, schedule: Q01DX Z (ip), vehicle: methylcellulose (MC) 95 % of control | dose: 333.0 mg/kg/injection, schedule: Q01DX Z (ip), vehicle: methylcellulose (MC) 95 % of control | dose: 500.0 mg/kg/injection, schedule: Q01DX Z (ip), vehicle: methylcellulose (MC) 86 % of control

C[PH+](c1ccccc1)c1ccccc1.C[PH+](c1ccccc1)c1ccccc1.[Br][Pd][Br]
inactive: [25] 98 % of control | [21] 105 % of control | [22] 100 % of control

N#CC1=C(N)CCP(c2ccccc2)C1 (configuration not stated)
inactive: [2] 94 % of control | [4] 97 % of control | [5] 100 % of control

O=C(CCNC(=O)OCc1ccccc1)NC(Cc1ccccc1)C(=O)OCc1ccccc1 (configuration not stated)
inactive: [2] 103 % of control | [4] 97 % of control | [5] 95 % of control

NOCc1cscn1
inactive: [15] 98 % of control | [16] 101 % of control | [26] 101 % of control

Clc1ccc(C2=NC3=CC(Cl)C=CC3=CC2C2CO2)cc1 (configuration not stated)
inactive: [6] 96 % of control | [7] 94 % of control | [8] 98 % of control | [9] 94 % of control | [11] 98 % of control

OC(CN1CCN(c2ccccc2)CC1)c1cc2ccccc2o1 (configuration not stated)
inactive: [2] 104 % of control | [4] 94 % of control | [5] 94 % of control

O=C(CC(c1ccccc1)(c1ccccc1)c1ccccc1)c1ccccc1
inactive: dose: 50.0 mg/kg/injection, schedule: Q01DX001 (ip), vehicle: carboxymethylcellulose (CMC) 98 % of control | [27] 93 % of control | [28] 90 % of control | [29] 93 % of control

Cc1cc(N(CCCl)CCCl)ccc1C=Nc1cc(Br)c(O)c(Br)c1
inactive: [27] 96 % of control | [28] 94 % of control | [29] 102 % of control

c1ccc2c(c1)nnn2-c1ccncc1
inactive: [30] 92 % of control | [1] 98 % of control | [3] 90 % of control

O=C(O)C1C2OC3C(OC(=O)C31)C2Cl (configuration not stated)
inactive: [17] 95 % of control | [18] 92 % of control | [19] 92 % of control

O=C1c2ccccc2-c2nc3ncccc3nc21
inactive: [7] 101 % of control | [9] 98 % of control | [11] 98 % of control

Cc1c(C(=O)/C=C/c2ccccc2)cc([N+](=O)[O-])cc1[N+](=O)[O-]
inactive: dose: 50.0 mg/kg/injection, schedule: Q01DX001 (ip), vehicle: saline 92 % of control | [15] 98 % of control | [16] 100 % of control | [26] 93 % of control

COc1ccc2c(c1)CC(OC)c1cc3c(nc1-2)-c1ccccc1CC3 (configuration not stated)
inactive: [6] 96 % of control | [7] 102 % of control | [8] 103 % of control | [9] 100 % of control | [10] 100 % of control | [11] 98 % of control

O=C1NC2(CCCCC2)C(=O)N1CCN(CCO)CCO
inactive: [24] 106 % of control | [12] 109 % of control | [13] 93 % of control | [14] 91 % of control

CCCC(C(=O)OCC)C(=O)c1ccccc1 (configuration not stated)
inactive: [7] 95 % of control | [9] 98 % of control | [11] 92 % of control

Clc1ccccc1/C=C/C=C1c2ccccc2-c2ccccc21
inactive: [21] 98 % of control and 90 % of control | [22] 98 % of control | [23] 105 % of control and 92 % of control

c1ccc(-c2cnc3nc4ccccc4nc3n2)cc1
inactive: dose: 75.0 mg/kg/injection, schedule: Q01DX001 (ip), vehicle: other 87 % of control | dose: 150.0 mg/kg/injection, schedule: Q01DX001 (ip), vehicle: other 91 % of control | dose: 300.0 mg/kg/injection, schedule: Q01DX001 (ip), vehicle: other 97 % of control

CC(C)[CH2][Sn](=[O])[OH]
inactive: [24] 96 % of control | [12] 100 % of control | [13] 100 % of control

OCc1cc2ccccc2cc1F
inactive: [30] 105 % of control | [1] 92 % of control | dose: 100.0 mg/kg/injection, schedule: Q04DX003 (ip), vehicle: acetone 100 % of control | [3] 103 % of control | dose: 200.0 mg/kg/injection, schedule: Q04DX003 (ip), vehicle: acetone 87 % of control
